Measured values reported in patent US9096607B2, “Tumor necrosis factor inhibitors” (THE TRUSTEES OF THE UNIVERSITY OF PENNSYLVANIA, priority 2005, dated 2015).

Legend:
[1] = test system: collagen induced arthritis; test: Collagen induced arthritis in mice; format: in vivo, mouse; conditions: DBA/1 mice
Protocol: Activity of compound I-9 was studied in a mouse collagen induced arthritis system, which is a model for human rheumatoid arthritis. Six to eight weeks old male DBA/1 mice were immunized by multiple intradermal injections of 100 μg chicken type II collagen (Sigma Chemical Co., St. Louis, Mo.) in 100 μl of 0.1 M acetic acid emulsified in an equal volume of complete Freund's adjuvant and were then challenged with the same antigen preparation i.p. on the 21st day. Animals were injected daily with the compound I-9 at different dosages (2-4 mg/kg/day) beginning on day 21 and animals were examined physically every other day in a blinded manner. In this model, disease typically develops 7-10 days after the second immunization, and the severity of disease can be determined by physical examination, joint histochemistry, or both techniques. […] Male DBA/1 mice (6-8-wk-old) were purchased from Jackson Laboratory (Bar Harbor, Me.) and housed in University of Pennsylvania Animal Care Facilities. Animals were maintained in accordance with guidelines of Institutional Animal Care and Use Committee (IACUC) of the University of Pennsylvania. For CIA induction, mice were immunized by multiple intradermal injections of 100 μg chicken type II collagen (Sigma Chemical Co., St. Louis, Mo.) in 100 μL of 0.1M acetic acid emulsified in an equal volume of complete Freund's adjuvant. Mice were challenged with the same antigen preparation i.p. at the 21st day. Mice were injected daily with the test compound at different dosage (2 and 4 mg/kg of body weight) from day 21. Disease develops 7-10 day after the second immunization. Mice were examined physically every other day in a blind manner. Their paws were scored individually as follows: 0=normal; 1=Erythema and mild swelling confined to the ankle joint or toes; 2=Erythema and mild swelling extending from the ankle to the midfoot or ankle joint; 3=Erythema and moderate swelling extending from the ankle to the metatarsal joints; and 4=Erythema and severe swelling encompass the ankle, foot, and digits. The maximum disease score per foot is 4, and the maximum disease score per mouse is 16. For histological examination of the joint, mice were killed at different time points, and their paws were collected and fixed in 10% formalin. The paws were then decalcified in hydrochloric acid, embedded in paraffin, sectioned, and stained with hematoxylin and eosin (H&E).

[2] = test system: TNF-α signaling in L929 cells; test: Inhibition of TNF-α signaling in L929 cells (western blot); format: cell-based, murine; conditions: 2 h pretreatment, TNF-α 20 ng/mL
Protocol: The effect of compound I-9 on TNF-α signaling was examined in L929 cells (American Type Culture Collection, Manassas, Va.). Cells were cultured in RPMI (Invitrogen) containing 5% fetal bovine serum. Cells (1×10^6/well) were cultured in 6-well plates for 12 h, treated with or without small molecule for 2 h, and then stimulated with TNF-α at 20 ng/mL for the indicated periods. Cells were then washed with ice-cold phosphate-buffered saline and lysed with lysis buffer. Cell lysates ([…]) were separated by 12% SDS-PAGE, electroblotted onto nitrocellulose membrane (Osmonics, Westborough, Mass.), and probed with anti-phospho-IκBα, anti-IκBα, anti-phospho-p38, anti-p38, and anti-β-actin antibodies (Cell Signaling Technology, Inc., Beverly, Mass.) and developed using an enhanced chemiluminescence (ECL) system (Amersham Biosciences, Piscataway, N.J.).

For `CC(=O)Oc1ccc(C(C)(c2ccc(OC(C)=O)cc2)c2ccc(OC(C)=O)cc2)cc1` [Compound I-9, 1,1,1-Tris-(4-acetoxyphenyl)ethane], the “clinical symptoms of arthritis” value ([1]; 2-4 mg/kg/day daily from day 21, vs untreated or control groups) was “dose dependent decrease”, the cartilage destruction ([1]; treated) was “prevented” and the “infiltration, histological analysis of ankle joints” value ([1]; treated) was “markedly reduced”. For the same compound, the “synovial tissue, histological analysis of ankle joints” value ([1]; treated) was “less synovial tissue”, the “production of phospho-IκBα following TNF-α treatment” value [2] was “reduced” and the “production of phospho-p38 following TNF-α treatment” value [2] was “reduced”.
